Assay results as given in US20040014217A1, “Methods of transfection” (priority 2000, published 2004).

Columns and labels:
[1] = test system: Human airway epithelial (HAE) cells; assay: GFP transfection of HAE cells with or without EGTA (FACS), Example 13; assay type: cell-based; conditions: EGTA 1 mM
Protocol: Human airway epithelial (HAE) cells, type HEAO— were seeded at 80% into 24 well plates. The cells were grown in Modified Eagle Medium (MEM) obtained from Life Technologies (Paisley, Scotland) supplemented with 10% foetal calf serum and 2 mM L-glutamine to form cultures of confluent cells. Subconfluent cultures of the same cells were also prepared.
The reporter genes used were a green fluorescent protein (GFP) reporter gene and a luciferase reporter gene. The GFP reporter gene was used in the form of plasmid pEGFP-N1, obtained from Clontech. The luciferase reporter gene was used in the form of construct pCILuc consisting of the firefly luciferase gene (Luc) inserted into the expresssion vector pCI (Promega, Southampton, England)
For these in vitro experiments peptide 12 [K]16XSXGACRRETAWACG (X: ε amino hexanoic acid), SEQ.ID.NO.: 26, was used. […]
Transfection levels using the luciferase reporter gene was measured as described in the Material and methods section. In the case of the GFP reporter gene, after harvesting the cells were analysed by fluorescence activated cell sorting (FACS) for quantification of the number of fluorescent cells.

[2] = test system: Human airway epithelial (HAE) cells; assay: Luciferase (pCILuc) transfection of HAE cells, Example 13; assay type: cell-based
Protocol: Transfection vector complexes were prepared as described in the Material and Methods section, see also Example 15. The complexes were prepared using 4 μg of the peptide, 0.75 μg of lipofectin and 1 μg of the reporter gene. All components and the vector complex were made up in OptiMEM (Life Technologies, Inc.). EGTA (Sigma) at a concentration of 100 mM in water was added to the transfection vector complex preparation at one hundredth of the volume of the vector complex, giving a final EGTA concentration of 1 mM.
The EGTA/vector complex mixture was added to the cultures, which were then harvested two days later. As controls, cultures were treated with OptiMEM medium alone and with the transfection vector complex without EGTA.
We obtained essentially the same results using the luciferase reporter gene instead of GFP. Transfections ere carried out using the transfection vector prepared as described above with the construct pCILuc, with and without EGTA, as described above. Luciferase assays were performed on cell-free extracts of harvested cells using a kit obtained from Promega using an Anthos Lucy 1 Luminometer. As with the GFP experiments, luciferase levels were enhanced approximately four-fold in confluent cells treated with EGTA compared with transfections performed without EGTA. […]

1HAEo-cells = assay: pEGFP transfection efficiency by flow cytometry, 1HAEo- cells, Example 15; assay type: cell-based, human; conditions: EGTA 2 mM versus no EGTA
Protocol: Human airway epithelial cell lines, a normal cell line 1HAEo- and a CF cell line 2CFSMEo-, were used in this study. […] The apical medium was then removed and growth medium was added basolateraly to leave the cells growing at an air-liquid interface. Confluent cells were grown for further 10-14 days and were monitored with an ohmmeter (EVOM; World Precision Instruments, Stevenage, UK) until the transepithelial resistance was greater than 300 Ω·cm before transfection. […] Sub-confluent, proliferating cells were prepared by growing the cells for less then 3 days in growth medium prior to transfection.
Briefly, stock solutions of the three components of the LID vector complex were prepared first. Plasmid DNA (component D) was diluted in cell culture medium OptiMEM (Life Technologies, Paisley, UK) at a concentration of 0.01 μg/μl. […] The peptide component I was dissolved in Opti-MEM at 0.1 mg/ml. The lipid component L was Lipofectin, a commercially available equimolar mixture of the cationic lipid N-[1-(2,3-dioleyloxy)propyl]-n,n,n-trimethylammonium chloride (DOTMA) and the neutral lipid dioleoyl phosphotidylethanolamine (DOPE), (Life Technologies, Paisley, UK) and was used from purchase at 1 mg/ml. […]

confluent 1HAEo-cells = assay: Binding of FITC-labelled LID complexes to confluent cells; assay type: cell-based, human; conditions: 2 mM EGTA, 4° C.
Protocol: The effects of EGTA on cell binding were determined by transfection with LID complexes prepared with fluorescein (FITC) labelled peptide. Peptide-12 was labelled with FITC from a labelling kit (Calbiochem, San Diego, USA) and purified by dialyzing in PBS overnight, according to the manufacturer's instruction. The ability of FITC-conjugated peptide-12 to form complexes with plasmid DNA was determined by retardation test, in which the electrophoresis migration of DNA is retarded by forming complexes with the cationic peptide as described previously (Hart et al., 1995). […] The cells were then transfected with apically added LID-FITC for 60 minutes at 4° C., at which the complexes would only bind to cell surface and no internalisation would occur, see(Chu et al (1999), Cornelissen et al (1997), Im et al (1986). The surface binding of the LID complexes was further differentiated from the internalised LID by incubating the cells with 1 μg/ml crystal violet (Sigma, Poole, UK) for 10 minutes at 4° C., to quench the fluorescence of surface-bound LID complexes, see (Ma et al (1997), Van Amers & Van Strijp (1994). The mean numbers of fluorescent particles were then counted in 10 random microscope fields and comparison was made between the data obtained from EGTA-treated or untreated cells.

[3] = test system: confluent epithelial cells; assay: Transepithelial resistance after EGTA exposure; conditions: 2 mM EGTA; data not shown

O=C(O)CN(CCOCCOCCN(CC(=O)O)CC(=O)O)CC(=O)O [EGTA, ethylene glycol-bis(β-aminoethyl ether)-N,N,N′,N′-tetraacetic acid]
effect on efficiency of transfection of sub-confluent cells [1]: no effect
increase of transfection levels of confluent cells [1]: four-fold
enhancement of luciferase levels in confluent cells versus transfection without EGTA ([2]; pCILuc): approximately four-fold
transfection after pre-incubation of the cells with EGTA ([2]; pre-incubation before vector): no better than the results without EGTA
increase in transfection efficiency of confluent cells (1HAEo-cells): 4 fold
binding of LID particles to confluent cells (confluent 1HAEo-cells): greatly increased
recovery of transepithelial resistance after removal [3]: 16 to 18 h
time after exposure at which transepithelial resistance dropped [3]: about 10 minutes
